Reference: patent publication US10782295B2, “Cysteine-reactive ligand discovery in proteomes” (THE SCRIPPS RESEARCH INSTITUTE, priority 2013, dated 2020)

Legend:
Assay in all cases: competitive isoTOP-ABPP, MDA-MB-231 soluble proteome
Format in all cases: binding
RPL23 = target: T1, RPL23 (Homo sapiens, UniProt P62829); conditions: 100 μM LDE, 60 min; peptide ISLGLPVGAVINC*ADNTGAK
T1 construct: directly in native proteomes; endogenous in cells; host or cells: MDA-MB-231
Method: (§1) Here, we envisioned that isoTOP-ABPP could be advanced to discover and quantify reactions between cysteines in proteomes and any electrophilic compound. In this advanced, ‘competitive’ version of isoTOP-ABPP (FIG. 1a), a proteome is treated with an electrophile (experimental sample) or DMSO (control sample). Both proteomic samples are then labeled with the IA probe and conjugated by CuAAC to light and heavy azide-biotin tags, respectively. The light and heavy samples are then mixed and subjected to our described isoTOP-ABPP protocol for enrichment, identification, and quantification of IA-labeled cysteines^30. Electrophile-modified cysteines are quantified by measuring the MS1 chromatographic peak ratios (R values) for heavy (DMSO-treated) over light (electrophile-treated) samples, with higher R values reflecting greater sensitivity to the electrophile. In this format, competitive isoTOP-ABPP can assay electrophiles against 1000+ cysteines in parallel directly in native proteomes without requiring any chemical modification to the electrophiles themselves.
(§2) Competitive isoTOP-ABPP experiments were performed in quadruplicate using the soluble proteome of the human breast cancer cell line MDA-MB-231 cell line. Proteomes were treated with 100 μM HNE, 15d-PGJ2, or 2-HD, for 60 minutes, followed by the IA-probe (100 μM, 60 min) A total of ˜1400 cysteine reactivities were quantified across the aggregate data set, with at least 900 cysteine reactivities quantified for each LDE (FIG. 2a) more than 750 of which were quantified for all the three electrophiles.
(§3) HNE was purchased from EMD biosciences, 15d-PGJ2 was purchased from Cayman Chemicals and 2-HD was purchased from Santa Cruz Biotechnology. Proteome samples were diluted to a 4 mg protein/mL solution in PBS. For each profiling experiment, one aliquot of the proteome sample (0.5 mL) was treated with 100 μM of LDE using 5 μL of a 10 mM stock and the other aliquot was treated with 5 μL of either ethanol (for HNE and 15d-PGJ2) or DMSO (for 2-HD) as control. For the concentration-dependent profiling experiments using HNE, aliquots of the proteomes (0.5 mL each) were treated with 5, 10, 50, 100 and 500 μM of HNE using 5 μL of 0.5, 1.0, 5, 10 and 50 mM of stock solution, respectively. After 60 minutes of treatment at room temperature, both the LDE-treated and control aliquots were passed through a NAP-5 Sephadex column (GE healthcare) to remove any unreacted LDE. The volume of each aliquot was increased to 1 mL with the concentration at 2 mg/mL after this step.
(§4) Each of the control and LDE-treated proteome samples (˜2 mg protein/mL in 1 mL volume) was treated with 100 μM of IA-probe using 10 μL of a 10 mM stock in DMSO. The labeling reactions were incubated at room temperature for 1 hour. Click chemistry (acetylene-azide cycloaddition) was performed by the addition of 100 μM of either the Heavy-TEV-Tag (for the control sample) or Light-TEV-Tag (for the LDE-treated sample) (20 μL of a 5 mM stock), 1 mM TCEP (fresh 50× stock in water), 100 μM ligand (17× stock in DMSO:t-Butanol 1:4) and 1 mM CuSO4 (50× stock in water). Samples were allowed to react at room temperature for 1 hour. After the click chemistry step, the light and heavy-labeled samples were mixed together and centrifuged (5900×g, 4 min, 4° C.) to pellet the precipitated proteins.
(§5) The pellets were washed twice in cold MeOH, after which the pellet was solubilized in PBS containing 1.2% SDS via sonication and heating (5 min, 80° C.). Samples were subjected to streptavidin enrichment of probe-labeled proteins, sequential on-bead trypsin and TEV digestion, and liquid chromatography-mass spectrometry (LC-MS) analysis according to the published isoTOP-ABPP protocol^30.
(§6) IA-probe labeled peptides were identified by SEQUEST2 and DTASelect3, and the quantification of heavy/light ratios (isoTOP-ABPP ratios, R) was performed by an in-house software (CIMAGE) as previously described. […]

MACROD1 = target: T2, MACROD1 (Homo sapiens, UniProt Q9BQ69); conditions: 100 μM LDE, 60 min; peptide LEVDAIVNAANSSLLGGGGVDGC*IHR
T2 construct: directly in native proteomes; endogenous in cells; host or cells: MDA-MB-231
T2 sequence (Q9BQ69 1-325): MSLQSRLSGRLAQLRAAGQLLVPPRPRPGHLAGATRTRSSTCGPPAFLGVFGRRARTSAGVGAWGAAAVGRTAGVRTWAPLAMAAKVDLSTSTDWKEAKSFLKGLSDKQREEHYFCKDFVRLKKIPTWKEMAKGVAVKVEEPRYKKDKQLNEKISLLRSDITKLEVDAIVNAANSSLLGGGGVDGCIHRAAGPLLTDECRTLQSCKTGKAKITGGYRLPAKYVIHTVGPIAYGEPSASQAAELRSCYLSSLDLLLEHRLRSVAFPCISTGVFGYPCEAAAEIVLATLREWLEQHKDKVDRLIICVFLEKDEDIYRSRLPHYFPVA
Method: as §1, §2, §3, §4, §5, §6

CCT8 = target: T3, CCT8 (Homo sapiens, UniProt P50990); conditions: 100 μM LDE, 60 min; peptide IAVYSC*PFDGMITETK
T3 construct: directly in native proteomes; endogenous in cells; host or cells: MDA-MB-231
T3 sequence (P50990 1-548): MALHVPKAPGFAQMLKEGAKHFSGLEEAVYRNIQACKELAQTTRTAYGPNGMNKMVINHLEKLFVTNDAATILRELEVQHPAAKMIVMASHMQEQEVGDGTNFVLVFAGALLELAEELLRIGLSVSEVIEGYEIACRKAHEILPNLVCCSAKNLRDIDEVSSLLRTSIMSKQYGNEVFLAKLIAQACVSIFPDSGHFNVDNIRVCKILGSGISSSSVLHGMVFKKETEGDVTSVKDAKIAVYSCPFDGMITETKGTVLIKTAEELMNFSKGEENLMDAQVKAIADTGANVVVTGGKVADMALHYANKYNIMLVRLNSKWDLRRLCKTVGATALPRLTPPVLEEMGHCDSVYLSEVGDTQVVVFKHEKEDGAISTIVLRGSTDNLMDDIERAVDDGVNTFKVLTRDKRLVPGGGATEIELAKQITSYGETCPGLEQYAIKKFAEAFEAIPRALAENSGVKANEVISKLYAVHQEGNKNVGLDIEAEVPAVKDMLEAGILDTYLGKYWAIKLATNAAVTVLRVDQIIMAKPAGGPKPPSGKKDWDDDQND
Method: as §1, §2, §3, §4, §5, §6

RPL24 = target: T4, RPL24 (Homo sapiens, UniProt P83731); conditions: 100 μM LDE, 60 min; peptide C*ESAFLSK
T4 construct: directly in native proteomes; endogenous in cells; host or cells: MDA-MB-231
Method: as §1, §2, §3, §4, §5, §6

WDR45L = target: T5, WDR45L (Homo sapiens, UniProt Q5MNZ6); conditions: 100 μM LDE, 60 min; peptide C*NYLALVGGGK
T5 construct: directly in native proteomes; endogenous in cells; host or cells: MDA-MB-231
Method: as §1, §2, §3, §4, §5, §6

T5 sequence (Q5MNZ6 whole entry): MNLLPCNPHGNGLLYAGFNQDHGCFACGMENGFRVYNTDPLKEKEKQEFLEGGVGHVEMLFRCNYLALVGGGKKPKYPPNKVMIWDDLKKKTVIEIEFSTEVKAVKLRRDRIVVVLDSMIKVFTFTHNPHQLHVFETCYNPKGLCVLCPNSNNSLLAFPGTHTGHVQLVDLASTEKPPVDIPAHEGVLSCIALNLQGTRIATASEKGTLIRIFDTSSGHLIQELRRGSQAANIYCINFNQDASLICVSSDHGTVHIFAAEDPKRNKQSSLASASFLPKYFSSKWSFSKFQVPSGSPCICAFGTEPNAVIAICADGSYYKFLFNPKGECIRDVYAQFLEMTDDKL

| Structure (SMILES) | R value (isoTOP-ABPP ratio heavy/light) for IA-labeled cysteine of RPL23 (RPL23) | R value (isoTOP-ABPP ratio heavy/light) for IA-labeled cysteine of MACROD1 (MACROD1) | R value (isoTOP-ABPP ratio heavy/light) for IA-labeled cysteine of CCT8 (CCT8) | R value (isoTOP-ABPP ratio heavy/light) for IA-labeled cysteine of RPL24 (RPL24) | R value (isoTOP-ABPP ratio heavy/light) for IA-labeled cysteine of WDR45L (WDR45L) |
| --- | --- | --- | --- | --- | --- |
| CCCCCCCCCCCCC/C=C/C=O [2-HD, 2-trans-hexadecenal] | 1.87 | 1.02 | 1.06 | 1.25 | 1.06 |
| CCCCCC(O)/C=C/C=O (stereo not drawn) [4-HNE, 4-Hydroxynonenal] | 1.73 | 1.56 | 1.14 | 1.74 | 3.34 |
| CCCCC/C=C/C=C1/C(=O)C=C[C@@H]1C/C=C\CCCC(=O)O [PGJ2, 15-deoxy-Δ12,14-prostaglandin J2] | 5.06 | 7.65 | 7.75 | 6.78 | 6.45 |
